Measured values published in patent US12115178B2, “Acylated active agents and methods of their use for the treatment of autoimmune disorders” (Flagship Pioneering Innovations V, Inc., priority 2018, dated 2024).

Experiments:
Type in all cases: in vitro ADME
[1] = Assay 2. Stability in Simulated Intestinal Fluid (SIF); conditions: SIF pH 6.7 with pancreatin, 1 μM, 37° C.
Experimental: Assay 2. Stability of acylated active agents in Simulated Intestinal Fluid (SIF). This assay was used to assess the stability of an acylated active agent in a small intestine. Phosphate buffer was prepared by dissolving 0.42 g of sodium hydroxide pellets and 3.95 g of monobasic sodium phosphate monohydrate and 6.19 g of sodium chloride in ultrapure water (MilliQ®, Millipore Sigma, Darmstadt, Germany). The pH was adjusted to 6.7 using aq. HCl and aq. NaOH, as necessary, and the solution was diluted with ultrapure water to produce 1 L of the pH 6.7 buffer. 112 mg FaSSIF powder (Biorelevant™, London, UK) was dissolved in 50 mL of the pH 6.7 buffer. 2 to 3 mL of the resulting solution were then added to 500 mg pancreatin (Millipore Sigma, Darmstadt, Germany). The resulting mixture was agitated by finger tapping the vessel containing the mixture until milky suspension formed. At this time, the remainder of the 50 mL FaSSiF/pH 6.7 buffer solution was added. The resulting suspension was flipped upside down 10 times to produce SIF, which was used fresh. Test compounds were dissolved in DMSO stock to 1 mM. An aliquot of the DMSO stock solution was removed and diluted in the SIF media in 15 mL falcon tubes to produce a mixture with a tested compound concentration of 1 μM. A 1 mL aliquot was immediately removed and diluted once with 1 volume of acetonitrile for T0 timepoint. The mixture was sealed and agitated at 37° C. in an incubator. Aliquots (1 mL) were removed at regular intervals and immediately quenched by the addition of 1 volume of acetonitrile. The resulting samples were analyzed by LC/MS to determine degradation rates.

[2] = Assay 3. In vitro Colonic Material Stability Assay
Experimental: Assay 3. In vitro Colonic Material Stability Assay. This assay was used to assess the stability of an acylated active agent in a large intestine. All experiments were performed in an anaerobic chamber containing 90% nitrogen, 5% hydrogen and 5% carbon dioxide. Colonic material was resuspended as a slurry (15% w/v final concentration) in pre-reduced, anaerobically sterilized dilution blanks (Anaerobe Systems AS-908). The colonic material was then inoculated into 96 well plates containing YCFAC media (Anaerobe Systems AS-680) or other suitable media (6.7 μL slurry into 1 mL total media). Compounds or groups of compounds were added to each individual well to reach a final analyte concentration of 1 or 10 μM, and the material was mixed by pipetting. Sample was removed after set timepoints (0, 120, 240, 480, 1440, 2880 minutes after initiation of the assay), quenched with acetonitrile containing internal standard, and analyzed by LC/MS.

[3] = Assay 1. Stability in Simulated Gastric Fluid (SGF); conditions: SGF pH 1.6 with pepsin, 1 μM, 37° C.
Experimental: Assay 1. Stability of acylated active agents in Simulated Gastric Fluid (SGF). This assay was used to assess the stability of an acylated active agent in a stomach.
Medium was prepared by dissolving 2 g of sodium chloride in 0.6 L in ultrapure water (MilliQ®, Millipore Sigma, Darmstadt, Germany). The pH was adjusted to 1.6 with 1N hydrochloric acid, and the volume was then adjusted to 1 L with purified water.
60 mg FaSSIF powder (Biorelevant™, London, UK) were dissolved in 500 mL buffer (above). Pepsin was added (0.1 mg/mL) (Millipore Sigma, Darmstadt, Germany), and the solution was stirred. The resulting SGF media were used fresh for each experiment.
Test compounds were dissolved in DMSO stock to 1 mM. An aliquot of the DMSO stock solution was removed and diluted in the SGF Media in 15 mL falcon tubes to generate a total compound concentration of 1 μM. A 1 mL aliquot was immediately removed and diluted once with 1 volume of acetonitrile for T0 timepoint. The mixture was sealed and mixed at 37° C. in an incubator. Aliquots (1 mL) were removed at regular intervals and immediately quenched by the addition of 1 volume of acetonitrile. The resulting samples were analyzed by LC/MS to determine degradation rates in SGF.

[4] = colonic material slurry, anaerobic, 1 or 10 μM

Compound	Assay 2 (SIF) (% @ Remaining 4 hours) [1]	Assay 3 (% Remaining at 24 h) [2, 4]	Assay 1 (SGF) (% Remaining @ 1 hour) [3]	other results
CCCC(=O)OC[C@H]1O[C@@H](OC)[C@H](OC(=O)CCC)[C@@H](OC(=O)CCC)[C@@H]1OC(=O)CCC [Compound 58, [(2R,3R,4S,5R,6R)-3,4,5-tris(butanoyloxy)-6-methoxyoxan-2-yl]methyl butanoate]	A (<25% of the tested compound remaining)	A (<25% of the tested compound remaining)		
CCCC(=O)Oc1cc(OC(=O)CCC)c2c(c1)O[C@H](c1cc(OC(=O)CCC)c(OC(=O)CCC)c(OC(=O)CCC)c1)[C@H](OC(=O)c1cc(OC(=O)CCC)c(OC(=O)CCC)c(OC(=O)CCC)c1)C2 [Compound 198, [(2R,3R)-5,7-di(butanoyloxy)-2-[3,4,5-tri(butanoyloxy)phenyl]chroman-3-yl] 3,4,5-tri(butanoyloxy)benzoate]				Assay 3 (% Remaining at 24 h) ([2]; Run 1, colonic material): C (>75% of the tested compound remaining); Assay 3 (% Remaining at 24 h) ([2]; Run 2, colonic material): C (>75% of the tested compound remaining); Assay 3 (% Remaining at 24 h) ([2]; Run 3, colonic material): B (25-75% of the tested compound remaining)
[2H]C([2H])([2H])C([2H])([2H])CC(=O)O[C@@H]1[C@@H](OC(=O)CC([2H])([2H])C([2H])([2H])[2H])[C@H](Oc2ccc(N)cc2C(=O)O)OC[C@H]1OC(=O)CC([2H])([2H])C([2H])([2H])[2H] [Compound 189, 5-amino-2-{[(2S,3R,4S,5R)-3,4,5-tris[(3,3,4,4,4-^2H5)butanoyloxy]oxan-2-yl]oxy}benzoic acid]		B (25-75% of the tested compound remaining)		
CCCC(=O)O[C@H]1[C@H](OC(=O)CCC)COC(O)[C@@H]1OC(=O)CCC (stereo partly drawn) [Compound 158, (3R,4S,5R)-4,5-bis(butanoyloxy)-2-hydroxyoxan-3-yl butanoate]	A (<25% of the tested compound remaining)	A (<25% of the tested compound remaining)		
CCC(=O)OC[C@H]1O[C@@H](OC)[C@H](OC(=O)CC)[C@@H](OC(=O)CC)[C@@H]1OC(=O)CC [Compound 59, [(2R,3R,4S,5R,6R)-6-methoxy-3,4,5-tris(propanoyloxy)oxan-2-yl]methyl propanoate]	A (<25% of the tested compound remaining)	A (<25% of the tested compound remaining)		
O=C(CCc1c[nH]c2ccccc12)Oc1ccc2c(c1)oc(=O)c1cc(OC(=O)CCc3c[nH]c4ccccc34)c(OC(=O)CCc3c[nH]c4ccccc34)cc12 [Compound 208, 8,9-bis({[3-(1H-indol-3-yl)propanoyl]oxy})-6-oxo-6H-benzo[c]chromen-3-yl 3-(1H-indol-3-yl)propanoate]	B (25-75% of the tested compound remaining)	B (25-75% of the tested compound remaining)		
CCC(=O)O[C@@H]1[C@H](OC(=O)CC)C=C(C(=O)O)C[C@H]1OC(=O)CC [Compound 217, (3R,4S,5R)-3,4,5-tris(propanoyloxy)cyclohex-1-ene-1-carboxylic acid]		B (25-75% of the tested compound remaining)		
CC(=O)O[C@@H]1[C@H](OC(C)=O)C=C(C(=O)O)C[C@H]1OC(C)=O [Compound 215, (3R,4S,5R)-3,4,5-triacetoxycyclohex-1-ene-1-carboxylic acid]		B (25-75% of the tested compound remaining)		
[2H]C([2H])([2H])C([2H])([2H])CC(=O)O[C@@H]1[C@@H](OC(=O)CC([2H])([2H])C([2H])([2H])[2H])[C@H](Oc2ccc(N)cc2C(=O)O)OC[C@H]1O [Compound 192, 5-amino-2-{[(2S,3R,4S,5R)-3,4-bis[(3,3,4,4,4-^2H5)butanoyloxy]-5-hydroxyoxan-2-yl]oxy}benzoic acid]		B (25-75% of the tested compound remaining)		
CC(=O)Oc1cc(OC(C)=O)c2c(c1)O[C@H](c1cc(OC(C)=O)c(OC(C)=O)c(OC(C)=O)c1)[C@H](OC(=O)c1cc(OC(C)=O)c(OC(C)=O)c(OC(C)=O)c1)C2 [Compound 197, [(2R,3R)-5,7-diacetoxy-2-(3,4,5-triacetoxyphenyl)chroman-3-yl] 3,4,5-triacetoxybenzoate]		A (<25% of the tested compound remaining)		
CCCC(=O)O[C@@H]1[C@H](OC(=O)CCC)C=C(C(=O)O)C[C@H]1OC(=O)CCC [Compound 218, (3R,4S,5R)-3,4,5-tris(butanoyloxy)cyclohex-1-ene-1-carboxylic acid]		B (25-75% of the tested compound remaining)		
CC(=O)Oc1cc(C(=O)O)cc(OC(C)=O)c1OC(C)=O [Compound 199, 3,4,5-triacetoxybenzoic acid]	B (25-75% of the tested compound remaining)		C (>75% of the tested compound remaining)	
CC(=O)Oc1ccc(C2CC(=O)c3c(OC(C)=O)cc(OC(C)=O)cc3O2)cc1 (stereo not drawn) [Compound 9, [4-(5,7-diacetoxy-4-oxo-chroman-2-yl)phenyl] acetate]	A (<25% of the tested compound remaining)		C (>75% of the tested compound remaining)	
C[C@@H]1OC(OC(=O)CCc2c[nH]c3ccccc23)[C@H](OC(=O)CCc2c[nH]c3ccccc23)[C@H](OC(=O)CCc2c[nH]c3ccccc23)[C@H]1OC(=O)CCc1c[nH]c2ccccc12 (stereo partly drawn) [Compound 147, (3R,4R,5S,6S)-3,4,5-tris({[3-(1H-indol-3-yl)propanoyl]oxy})-6-methyloxan-2-yl 3-(1H-indol-3-yl)propanoate]		A (<25% of the tested compound remaining)		
CCCC(=O)Oc1cc(OC(=O)CCC)c2c(=O)c(OC(=O)CCC)c(-c3cc(OC(=O)CCC)c(OC(=O)CCC)c(OC(=O)CCC)c3)oc2c1 [Compound 169, 3,5-bis(butanoyloxy)-4-oxo-2-[3,4,5-tris(butanoyloxy)phenyl]-4H-chromen-7-yl butanoate]	C (>75% of the tested compound remaining)		C (>75% of the tested compound remaining)	
CCCC(=O)Oc1cc(OC(=O)CCC)c2c(=O)c(OC(=O)CCC)c(-c3ccc(OC(=O)CCC)c(OC(=O)CCC)c3)oc2c1 [Compound 181, [2-butanoyloxy-4-[3,5,7-tri(butanoyloxy)-4-oxo-chromen-2-yl]phenyl] butanoate]	A (<25% of the tested compound remaining)		C (>75% of the tested compound remaining)	
CCC(=O)OC1OC[C@@H](OC(=O)CC)[C@H](OC(=O)CC)[C@H]1OC(=O)CC (stereo partly drawn) [Compound 130, (3R,4S,5R)-3,4,5-tris(propanoyloxy)oxan-2-yl propanoate]	A (<25% of the tested compound remaining)		C (>75% of the tested compound remaining)	
CCC(=O)Oc1ccc2c(c1)oc(=O)c1cc(OC(=O)CC)c(OC(=O)CC)cc12 [Compound 204, [6-oxo-8,9-di(propanoyloxy)benzo[c]chromen-3-yl] propanoate]	A (<25% of the tested compound remaining)		C (>75% of the tested compound remaining)	
CCC(=O)O[C@@H]1[C@@H](OC(=O)CC)[C@H](Oc2ccccc2C(=O)O)OC[C@H]1OC(=O)CC [Compound 27, 2-(((2S,3R,4S,5R)-3,4,5-tris(propionyloxy)tetrahydro-2H-pyran-2-yl)oxy)benzoic acid]	B (25-75% of the tested compound remaining)		C (>75% of the tested compound remaining)	
CCCC(=O)Oc1ccc2c(c1)oc(=O)c1cc(OC(=O)CCC)c(OC(=O)CCC)cc12 [Compound 210, 8,9-bis(butanoyloxy)-6-oxo-6H-benzo[c]chromen-3-yl butanoate]		A (<25% of the tested compound remaining)		
